Consider three compounds from patent US9409904B2, “Compounds and compositions for use in augmentation of glucose” (YISSUM RESEARCH DEVELOPMENT COMPANY OF THE HEBREW …, priority 2011, dated 2016).

Series [1] has as its system diabetic KKAy mice. The series can be described thus: Intraperitoneal glucose tolerance test (IP-GTT) in KKAy mice. The series is classed as in vivo. The text has this:
(§1) The effect of the various ethoxybenzo-thiazol derivatives on the blood glucose level in diabetic KKAy mice was investigated. The in vivo antihyperglycemic effect of the lead compound was investigated in hyperglycemic and hyperinsulinemic KKAy mice, an established animal model for T2DM, after subcutaneous injections. Venous blood samples from small tail clips were taken for glucose determination. Finally, to investigate the effect of the lead compound on whole body glucose disposal in the mice we performed standard IP-GTT tests following an overnight fast.
A standard IP-GTT test was performed on mice after an overnight fast. Glucose in saline was injected intraperitoneally (1.5 g/kg body weight). Venous blood samples from small tail clips were taken for glucose determination using a glucometer (FreeStyle Freedom, Abbott Diabetes Care, Alamada, Calif.).
(§2) The antihyperglycemic potential of 34 was investigated in an animal model of diabetes. Test compound was injected subcutaneously (75 mg per kg body weight, suspension in sesame oil, twice daily) to diabetic KKAy mice; control mice received the vehicle only. The blood glucose levels at day zero, 20.8±0.9 and 22.3±1.3 mM for the control and 34-treated groups, respectively, were taken as the reference 100% values in FIG. 4A. […] It should be noted, however, that despite the marked antihyperglycemic effects of 34, normoglycemia was not reached. To better evaluate the potential of 34, the glucose tolerance of treated KKAy mice was evaluated using a standard IP-GTT. The mice were treated with 34 as described above for two days, after which IP-GTT was performed after an overnight fast, as described. […] IP-GTT was performed following an overnight fast in mice treated with 34 or oil, as described herein above. […] The cells were grown in standard RPMI1640 complete culture medium, treated with 10 μM compound 20 and incubated for the indicate time periods. At the end of incubations the cells were taken for a standard GSIS assay described herein.

Series [2] concerns L6 myotubes. The series can be described thus: [3H]-2-deoxy-D-glucose (dGlc) uptake assay in L6 myotubes. The series is classed as cell-based. Here is the method:
The effect of the various derivatives on the rate of glucose uptake in L6 myotubes was investigated. […] The abundance of GLUT1 and GLUT4 in the plasma membranes of L6 myotubes was determined in cells expressing GLUT-1myc or GLUT-4myc, as described before. […] In addition, the effect of compounds on the glucose—stimulated insulin secretion (GSIS) was investigated.
L6 myotubes were maintained as described in [21]. All experiments were conducted on fully differentiated myotubes.
The rate of [^3H]dGlc uptake in myotubes, in the absence or presence of insulin, was determined as described in [21]. […] […] The cultures were then rinsed 3 times with PBS at room temperature and incubated with PBS, pH 7.4, containing 0.1 mM dGlc and 1.0 μCi/ml [^3H]dGlc for 5 minutes at room temperature. At the end of the assay, the myotubes were lysed in 0.1% (w/v) SDS in water and taken for liquid scintillation.

Series [3] relates to GLUT4myc. The series can be described thus: Colorimetric determination of surface GLUT4myc in L6 myotubes. In kind it is cell-based. The conditions noted are these: for abundance of GLUT4myc in the plasma membrane: 25 μM of 34, insulin. The procedure:
The colorimetric detection of surface GLUT4myc or GLUT1myc in L6 myotubes was performed as described in [7]. Briefly, cultured myotubes were incubated with rabbit anti-C-Myc antibody (1:200 dilution), washed and fixed with 3% formaldehyde, and further interacted with goat HRP-conjugated anti-rabbit IgG (1:2000 dilution). Following the washes, a solution of OPD was added, and the culture plates were taken for absorbance measurement at 492 nM to estimate the relative abundance of GLUT1myc or GLUT4myc on the plasma membrane of the myotubes. The GLUT1myc and GLUT4myc L6 cell cultures were the courtesy of Dr. A. Klip, Hospital for Sick Children (Toronto, ON, Canada).
The capacity of compound 34 to increase the rate of glucose uptake by increasing GLUT4 content in the plasma membrane of myotubes was tested. […] The cells expressing GLUT1myc or GLUT4myc were treated with 25 μM of 34 or DMSO as described above. At the end of the incubation, the cultures were taken for immunodetection of surface GLUT1myc (open bars) or GLUT4myc (black bars), as described herein above.

Series [4] has as its system GLUT4. The series can be described thus: Total GLUT4 content in whole cell lysates of L6 myotubes, Western blot. The series is classed as cell-based. Here is the method:
(§3) Whole cell lysates were prepared as previously described with some minor modifications: the lysis buffer contained 50 mM Tris-HCl, pH 7.5, 1 mM EDTA, 1 mM EGTA, 1 mM Na3VO4, 150 mM NaCl, 50 mM NaF, 10 mM sodium-glycerophosphate, 5 mM sodium pyrophosphate, and 1 mM PMSF, supplemented with 0.1% (v/v) NP-40, 0.1% (v/v) 2-β-mercaptoethanol, and protease inhibitor cocktail (1:100 dilution). The cells were washed by ice-cold PBS, and 1 ml of lysis buffer was then added and incubated at 4° C. for 40 minutes. The resulting cell lysates were centrifuged at 8,700 g×30 minutes at 4° C. and the resulting supernatant fractions were separated and kept at −20° C. until used. Protein content in the supernatant was determined according to Bradford, using a BSA standard dissolved in the same buffer. Aliquots (5-60 μg of protein) were mixed with the sample buffer [62.5 mM Tris-HCl, pH 6.8, 2% (w/v) SDS, 10% (v/v) glycerol, 50 mM DTT, and 0.01% (w/v) bromophenol blue], heated at 95° C. for 5 minutes. Samples for Western blot analyses of GLUT1 and GLUT4 were prepared as described in [22]. The proteins were separated on 10% SDS-PAGE and Western blot analyses performed using antibodies according to our previously established protocols.
On the technique in general: A western blot detects proteins with antibodies after separation by electrophoresis.

Series [5] concerns diabetic KKAy mice. The series can be described thus: Blood glucose level in diabetic KKAy mice after subcutaneous injection. In kind it is in vivo. The settings on record: for reduction of blood glucose: 75 mg/kg s.c. twice daily in sesame oil.
Source text: as §1
Diabetic male KKAy mice (8 to 12-week old, 20-25 g) were purchased from The Jackson Laboratory (Bar Harbor, Me.). The animals were routinely kept in 12-h light/dark cycles and provided with food and water ad libitum. Blood glucose levels at sacrifice ranged between 17-25 mmol/l. The ethics committee (IACUC) of the Hebrew University of Jerusalem approved the study protocol for animal welfare. The Hebrew University of Jerusalem is an AAALAC international accredited institution.
as §2

In series [6] the test system is AMPK. Kind of series: Thr172 phosphorylation of AMPK in L6 myotubes, Western blot of whole cell lysates. In kind it is cell-based. Here is the method: as §3, with “The effect of the various derivatives on the rate of glucose uptake in L6 myotubes was investigated. […] The abundance of GLUT1 and GLUT4 in the plasma membranes of L6 myotubes was determined in cells expressing GLUT-1myc or GLUT-4myc, as described before. […] In addition, the effect of compounds on the glucose—stimulated insulin secretion (GSIS) was investigated. Whole” for “Whole”, “Aliquots (5-60 μg of protein) were mixed with the sample buffer [62.5 mM Tris-HCl, pH 6.8, 2% (w/v) SDS, 10% (v/v) glycerol, 50 mM DTT, and 0.01% (w/v) bromophenol blue], heated at 95° C. for 5 minutes.” left out

Series [7] relates to GLUT1. The series can be described thus: Total GLUT1 content in whole cell lysates of L6 myotubes, Western blot. In kind it is cell-based. Here is the method:
as §3

Series [8] relates to L6 myotubes. The series can be described thus: Cytotoxic effects in L6 myotube cultures. In kind it is cell-based. The settings on record: above 100 μM.

“Also recorded” adds a separate entry of the source.

In the case of `CCOc1ccc2nc(SCc3nc4ccccc4s3)sc2c1` [Compound 34, 2-((benzothiazol-2-ylmethyl)thio)-6-ethoxybenzothiazole], the “glucose tolerance (result in words)” value in series [1] (75 mg/kg s.c. twice daily, two days) was “improved glucose tolerance; also recorded: significantly improved”. The “IP-GTT area under the curve (AUC)” value in series [1] (two days of treatment, overnight fast, glucose 1.5 g/kg i.p.) was 753.6±142.2 mmol glucose/l/min. Further, in series [1] (two-day treatment), the “improvement of total body glucose clearance” value is recorded as 40%-50%. In addition, in series [2], the “minimal effective concentration, glucose uptake” value was 25 µM. Besides, in series [2], the “persistence of stimulatory effect on glucose uptake” value was “up to 24 hours”. Also, the “rate of glucose uptake in L6 myotubes (result in words)” value in series [2] is listed as “increase; also recorded: markedly augmented”. Also, the “stimulatory effect on glucose uptake in the presence of wortmannin or Akt/PKB inhibitor” value in series [2] (100 nM wortmannin or 100 nM Akt/PKB inhibitor added 30 min before) is “PI3K- and Akt/PKB-independent manner; also recorded: remained unaltered”. Also, the “increase of rate of glucose uptake, combined effect with insulin” value in series [2] (25 μM of 34 (5 hours) plus insulin 100 nM (last 20 minutes)) is listed as 148%±29%. In addition, the “increase of rate of glucose uptake” value is recorded as 75%±17% in series [2] (25 μM of 34, last 5 hours, serum free, 23.0 mM D-glucose, without insulin) and 2.5 fold in series [2] (under similar experimental conditions (5 hours)). Also, in series [3], the “period required to exert action on GLUT4myc translocation” value is 5 h. For the same compound, the “abundance of GLUT4myc in the plasma membrane” value in series [3] is “induces GLUT-4; also recorded: increased”. The “total content of GLUT4 in myotubes” value in series [4] is “Neither compound altered”. Moreover, the normoglycemia entry in series [5] (75 mg/kg s.c. twice daily) is given as “not reached”. Besides, the “reduction of blood glucose” value is given as about 30% in series [5] (day 1), about 45% in series [5] (day 2) and about 50% in series [5] (day 3). Further, the “time to significant Thr172 phosphorylation of AMPK” value in series [6] (incubation time) is at most 1 h. For the same compound, the “total content of GLUT1 in myotubes” value in series [7] is reported as “Neither compound altered”.
With “insulin: Human insulin (Actrapid) purchased from Novo Nordisk [reference compound]”, the “increase of rate of glucose uptake” value in series [2] (insulin 100 nM, last 20 minutes of incubation) is 45%±13%. For the same compound, in series [3], the “time of effect on GLUT4myc translocation to the plasma membrane” value amounted to 30 min and the “abundance of GLUT4myc in the plasma membrane” value is on record as “increased”. The “total content of GLUT4 in myotubes” value in series [4] is given as “Neither compound altered”. The “total content of GLUT1 in myotubes” value in series [7] was “Neither compound altered”.
With `CCC1SC(N)=NC1=O` (stereo not drawn) [Compound 3, 2-amino-5-ethylthiazol-4(5H)-one], the “rate of glucose uptake in L6 myotubes (result in words)” value in series [2] was “increase; also recorded: augmented”. In addition, the “time of maximal glucose uptake stimulatory effect” value in series [2] (100 μM) was at most 5 h. Further, in series [2] (100 μM, basal rate = 100%), the “rate of glucose uptake compared to vehicle (DMSO) treated control” value is 131.4%±6.8%. Moreover, the activity at 100 µM in series [2] (Rattus norvegicus, L6, 100 μM, Mean ± SD (n = 3), Table 1, read-out: Effect on glucose uptake [100 μM] in L6 myotubes (%)) was found to be 131 ± 6.8%. Also, the “maximal effective concentration, glucose uptake” value in series [2] (dose response, 5 h (3) or 12 h (4, 15)) was 100 µM. The cytotoxic effects result in series [8] is “cytotoxic effects”. Further, the “time of return of Thr172 phosphorylation to the basal hypo-phosphorylated level” value in series [6] (100 μM) came to 3 h. In series [6] (L6 myotubes), the “Thr172 phosphorylation in AMPK / AMPK activation (result in words)” value is “increased”. Moreover, the “time of maximal (peak) Thr172 phosphorylation in AMPK” value in series [6] (incubation time) was determined as 40 min.
